From ChEMBL document CHEMBL1201862, “PubChem BioAssay data set” (2004) come the findings set out here.

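Compound exposure: 48 hours, 5 concentrations, 96-well plates. GI50: concentration for 50% inhibition of growth.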 Activity calls are given as the source filed them. No stated cut-off is given here; in the data, active = GI50 up to about 1.1 µM and inactive = higher.

What all share (experiment): NCI anticancer screen, dose series, 48 h
In experiment [1] the test system is CAKI-1.
Experiment [2] has as its system CCRF-CEM.
Experiment [3] concerns COLO 205.
The subject of experiment [4] is HCT-116.
The subject of experiment [5] is HOP-92.
For experiment [6], the system named is Hs-578T.
The test system of experiment [7] is LOX IMVI.
Experiment [8] concerns M14.
The subject of experiment [9] is MDA-N.
Experiment [10] has as its system NCI-H23.
For experiment [11], the system named is NCI-H460.
The test system of experiment [12] is NCI-H522.
Experiment [13] relates to SF-295.
The subject of experiment [14] is SK-OV-3.
The subject of experiment [15] is SNB-19.
The subject of experiment [16] is SNB-75.
Experiment [17] deals with SW-620.
Experiment [18] has as its system T47D.
Experiment [19] concerns UACC-257.
In experiment [20] the test system is UO-31.

For `O=C(O)C(Cl)(c1ccccc1)c1ccccc1`, the GI50 in experiment [1], in experiment [2], in [3], in experiment [4], in experiment [5] and in [6] was > 100 µM (inactive) throughout. The GI50 in experiment [7], in [8], in experiment [9], in experiment [10], in [11] and in [12] was > 100 µM (inactive) each time. Further, the GI50 in experiment [13], in experiment [14], in [15], in experiment [16], in experiment [17] and in experiment [18] was > 100 µM (inactive) in each case. Moreover, the GI50 in experiment [19] and in [20] was > 100 µM (inactive) throughout.

Regarding `Cc1cn(CCCCCCC2=NCCCN2)c(=O)[nH]c1=O`, the GI50 in experiment [1], in [2], in experiment [3], in experiment [4], in [5] and in experiment [6] was > 100 µM (inactive) throughout. The GI50 in experiment [7], in experiment [8], in experiment [9], in [10], in experiment [11] and in experiment [12] was > 100 µM (inactive) each time. Moreover, the GI50 in experiment [13], in experiment [14], in experiment [15], in [16], in experiment [17] and in experiment [18] was > 100 µM (inactive) each time. For the same compound, the GI50 in experiment [19] and in experiment [20] was > 100 µM (inactive) throughout.

Turning to `CCN1CCN(c2ccc(Nc3ccnc4ccc5c(nnn5C)c34)cc2)CC1`, the GI50 in experiment [1] is 5.48 µM (inactive); in [2], 4.6 µM (inactive); in experiment [3], 2.78 µM (inactive); in [4] it was 3.44 µM (inactive); in [5] it was 4.8 µM (inactive); in experiment [6], 13.1 µM (inactive). The GI50 in [7] is 3.14 µM (inactive); in [8] it was 10.7 µM (inactive); in experiment [9] it was 3.52 µM (inactive); in experiment [10], 11.6 µM (inactive); in experiment [11] it was 2.97 µM (inactive); in experiment [12], 1.1 µM (active). The GI50 in [13] is 8.2 µM (inactive); in experiment [14], 11.4 µM (inactive); in [15], 3.15 µM (inactive); in experiment [16] it was 13.9 µM (inactive); in [17], 3.93 µM (inactive); in [18] it was 16 µM (inactive). Also, the values for the GI50 in experiment [19] and in experiment [20] were 13.2 µM (inactive) and 10.2 µM (inactive), respectively.
